Here are results for seven compounds from patent publication US8883765B2, “Anti-cytomegalovirus activity of artemisinin-derived dimers” (The John Hopkins University, priority 2009, dated 2014).

Molecules are shown by their SMILES. Read-outs that look alike come from different tables or passages of the source. Where only a bound is given, the exact number is not on record here.

Series [1] addresses pp 28-luciferase expressing CMV (Towne). The series is described as follows: microbe, parasite or virus in culture. It counts as cell-based, human CMV. Conditions: for inhibition of CMV replication: different batches and passages of HFF, and HEL cells. From the text: A recombinant virus expressing luciferase reporter gene under the control of UL99 (pp 28) late promoter was generated by insertion of the reporter gene between the US9 and US10 ORFs in the Towne genome. […] Ahn J H, Hayward G S. Disruption of PML-associated nuclear bodies by IE1 correlates with efficient early stages of viral gene expression and DNA replication in human cytomegalovirus infection. Virology. 2000; 274:39-55.
(§1) Towne-GFP, Towne-luciferase, and SB viruses were used in these assays. HFF or HEL were grown to subconfluent monolayers and infected with the CMV viruses at MOI 0.1 to 3. […] J Mol Med. 2002; 80:233-242. The concentration of each compound was calculated and adjusted by volume such that it was constant throughout the experiment. Following 90 minute incubation, media was replaced with fresh media containing the drug used. Infected and treated cells were incubated at 37° C. in a 5% CO2 atmosphere for 3-10 days depending on the virus and the anti-viral assay. The recombinant luciferase-expressing virus was incubated for 72 hours, the GFP virus was incubated for 5 days, and the clinical isolate for 10 days. All experiments were subsequently repeated with compounds added to wells just after viral inoculation.

Series [2] has as its system Human Foreskin Fibroblasts (HFF).
Procedure: (§2) Cellular cytotoxicity was determined using CellTiter-Glo® Luminescent Cell Viability Assay (Promega, Madison, Wis.). The assay determines the number of viable cells in culture based on quantification of the ATP present.
(§3) For EC50 and CC50 reported values represent the mean and SD of data derived from at least five independent experiments performed in triplicates.
For series [3], the system named is GFP-tagged CMV (Towne-GFP). Description: GFP-tagged CMV replication in pretreated HFF. It counts as cell-based, human CMV. Conditions: pretreatment of HFF with different concentrations; data not shown. The method, then:
The CMV strains used for infections were the highly-passaged Towne virus, and a clinical isolate obtained from the urine of a neonate with congenital CMV infection (SB) and passaged once in tissue culture. […] Initial experiments were performed using a recombinant human CMV-green fluorescent protein (GFP) virus, derived from Towne strain. […] J Virol.
as §1

In series [4] the test system is CMV IE1 protein expression. Description: Western blot for CMV immediate early protein IE1 (and GFP). More on the design: expression of IE1 and GFP: dose or concentration left out as unconfirmed. The series is classed as cell-based, human CMV. Conditions: for expression of IE1 and GFP: Towne-GFP, artemisinin; for IE1 expression: clinical isolate SB, MOI=1. The method, then: Monoclonal antibodies to CMV immediate early proteins IE-1 and IE-2 (MAb810) and to cellular β-actin were purchased from Millipore (Billerica, Mass.). Confluent cells were infected with CMV in the presence of artemisinin compounds. At the indicated times cells were harvested in sample buffer (RIPA buffer, Tris 50 mM, Nacl 150 mM, SDS 0.1%, Na Deoxycholate 0.5%, NP40 1%, and protease inhibitor cocktail), boiled and loaded onto SDS-PAGE. Proteins were separated by electrophoresis and transferred to nitrocellulose membrane. After blocking, blots were probed with primary antibody (1:3,000) overnight at 4° C. in phosphate-buffered saline, and Tween. After washing 3 times, blots were probed with HRP-conjugated anti-mouse (Sigma), 1:5,000 for 1 hour at room temperature. Blots were washed three times in phosphate-buffered saline/Tween, and then developed by enhanced chemiluminescence according to manufacturer protocol.
The expression of CMV immediate early (IE) protein was tested by western blot to determine whether artemisinins' inhibition of CMV replication occurs early in the virus life cycle. […] Further evidence for the early effect of artemisinins on IE1 protein expression was obtained with the clinical isolate (SB, FIG. 5b). […] Stinski M F. Sequence of protein synthesis in cells infected by human cytomegalovirus: early and late virus-induced polypeptides. J Virol. 1978; 26:686-701.
(In western blotting, separated proteins are transferred to a membrane and probed.)

The subject of another series is CMV clinical isolates. The conditions noted are these: 11.1 μM; cited from earlier work.
In series [5] the test system is Human Foreskin Fibroblasts (HFF). The series is described as follows: Cellular cytotoxicity, CellTiter-Glo Luminescent Cell Viability Assay. The conditions noted are these: drug concentration that leads to 50% cellular cytotoxicity; mean and SD, at least five experiments in triplicates. (In general: In ATP-based viability assays light output follows the ATP content of the culture.)
Procedure: as §2, §3

For series [6], the system named is Toxoplasmosis (Toxoplasma gondii). Description: Anti-toxoplasmosis activity of supernatants of CMV infected cells. The conditions noted are these: supernatants of CMV infected cells at 3-5 days post infection. It counts as cell-based. On the procedure: To confirm that the difference in anti-CMV activity between monomers and dimers was not a result of instability of the monomers in tissue culture, the anti-toxoplasmosis activity of these compounds was determined in the supernatants of CMV infected cells at 3-5 days post infection. […] Antimicrob Agents Chemother. 2006; 50:4206-4208.

In series [7] the test system is recombinant luciferase-expressing CMV. The series is described as follows: Plaque reduction assay in human embryonic lung cells (HEL). It counts as cell-based, human CMV. Conditions: 10 μM, luciferase virus.
Procedure: For plaque reduction assay, human embryonic lung cells were seeded into six-well plates and incubated at 37° C. one day prior to infection with the recombinant luciferase-expressing CMV. […] The virus was diluted to a desired concentration which gave 50-60 plaques per well. Medium was aspirated from the wells, and 0.2 ml of virus suspension was added to each well in triplicates. Plates were incubated for 90 minutes with shaking every 10 min, thereafter drugs were added and a methylcellulose overlay applied to each well. After incubation for 10 days, cells were stained with crystal violet. The stain was aspirated, wells were washed with phosphate-buffered saline, and plaques were counted.

A word on the EC50: it is the midpoint of the concentration-response curve. As to `C[C@H]1[C@@H](CCC(=O)Nc2ccc(F)cc2)O[C@@H]2OC3(C)CC[C@H]4[C@H](C)CC[C@@H]1[C@@]24OO3` [Artefanilide (3), Artefanilide], in series [1] (Table 1, 50% virus inhibition, mean and SD, at least five experiments in triplicates, read-out: EC50), the EC50 came out at 8.1 ± 2.2 µM. Further, the CC50 in series [2] was 44.9 ± 3.4 µM.

For the compound `C[C@@H]1CC[C@H]2[C@@H](C)C(=O)O[C@@H]3O[C@@]4(C)CC[C@@H]1[C@]32OO4` [Artemisinin (1), Artemisinin], the CMV replication result in series [3] is on record as “dose-dependent reduction”. For the same compound, the “expression of IE1 and GFP” value in series [4] (MOI of 0.1) is “undetectable”; in series [4] (MOI of 0.5), “decreased”.

Turning to `C[C@H]1[C@H](OC(=O)CCC(=O)O)O[C@@H]2O[C@@]3(C)CC[C@H]4[C@H](C)CC[C@@H]1[C@@]24OO3` [Artesunate (2d), Artesunate], the “in-vitro inhibition of clinical isolates” value in the series with CMV clinical isolates was 50-80%. Moreover, the EC50 in series [1] (Human betaherpesvirus 5) worked out at 18.5 ± 5.2 µM. Besides, the CC50 in series [5] turned out to be 77.5 ± 14.4 µM.

Consider `C[C@H]1[C@@H](CC(COP(=O)(Oc2ccccc2)Oc2ccccc2)C[C@H]2O[C@@H]3O[C@@]4(C)CC[C@H]5[C@H](C)CC[C@@H]([C@H]2C)[C@@]35OO4)O[C@@H]2O[C@@]3(C)CC[C@H]4[C@H](C)CC[C@@H]1[C@@]24OO3` (stereo partly drawn) [Dimer isobu-OP(O)(OPh)2], for which, in series [1] (FIGS. 7 and 8), the “rank as CMV inhibitor among eight representative dimers” value was “most potent”. In series [1] (eight representative dimers, FIGS. 7 and 8), this compound gave a selectivity index above 1000.

Take `C[C@H]1[C@@H](CC(CO)C[C@H]2O[C@@H]3O[C@@]4(C)CC[C@H]5[C@H](C)CC[C@@H]([C@H]2C)[C@@]35OO4)O[C@@H]2O[C@@]3(C)CC[C@H]4[C@H](C)CC[C@@H]1[C@@]24OO3` (stereo partly drawn) [Dimer primary alcohol (4)]: the “inhibition of CMV replication” value in series [1] is reported as “dramatic inhibition”. This compound also came in with an EC50 in series [6] of 0.4 ± 0.15 µM. Moreover, in series [4] (SB, MOI=3, prior to onset of DNA replication), the “time post infection at which inhibition of IE1 expression was observed (as early as)” value is 12 h. Besides, the IE1 expression result in series [4] (1-μM, 24 and 48 hr) is given as “significantly reduced”.

With `C[C@H]1[C@@H](CC(C[C@H]2O[C@@H]3O[C@@]4(C)CC[C@H]5[C@H](C)CC[C@@H]([C@H]2C)[C@@]35OO4)CS(=O)(=O)c2ccc(COC(=O)N(C)C)cc2)O[C@@H]2O[C@@]3(C)CC[C@H]4[C@H](C)CC[C@@H]1[C@@]24OO3` (stereo partly drawn) [Dimer sulfone carbamate (6)], the “inhibition of CMV replication” value in series [1] was “dramatic inhibition”.

For `Nc1nc(O)c2ncn(COC(CO)CO)c2n1` [GCV, Ganciclovir], the “CMV inhibition compared with the four monomers” value in series [1] (10 μM, FIG. 2) is “more potent”. Also, in series [7], the “reduction in plaque formation” value is given as 80%. Besides, the IE1 expression result in series [4] (10 μM) is “not affected”.
